Laboratory results published in the supplement of paper PMC13380429.
± gives the standard deviation of the averaged measurements.

Columns and labels:
Conditions in all cases: 72 h
Caco-2 [1] = test: cell viability relative to DMSO; higher = less toxic
Calu-3 [2] = test: as above
HepG2 [3] = test: as above
U2OS [4] = test: as above
Vero E6 [5] = test: as above
Caco-2 [6] = test: relative viability EC50 (midpoint between 100% and the lowest measured viability); higher = less toxic
Calu-3 [7] = test: as above
HepG2 [8] = test: as above
U2OS [9] = test: as above
Vero E6 [10] = test: as above
Caco-2 [11] = test: drug sensitivity score (DSS) for viability; higher = more toxic; extreme values may be limits of the assay
Calu-3 [12] = test: as above
HepG2 [13] = test: as above
U2OS [14] = test: as above
Vero E6 [15] = test: as above

Compound	cell viability (Caco-2 [1]; 1 nM) [%]	cell viability (Caco-2 [1]; 10 nM) [%]	cell viability (Caco-2 [1]; 100 nM) [%]	cell viability (Caco-2 [1]; 1000 nM) [%]	cell viability (Caco-2 [1]; 10000 nM) [%]	cell viability (Calu-3 [2]; 1 nM) [%]	cell viability (Calu-3 [2]; 10 nM) [%]	cell viability (Calu-3 [2]; 100 nM) [%]	cell viability (Calu-3 [2]; 1000 nM) [%]	cell viability (Calu-3 [2]; 10000 nM) [%]	cell viability (HepG2 [3]; 1 nM) [%]	cell viability (HepG2 [3]; 10 nM) [%]	cell viability (HepG2 [3]; 100 nM) [%]	cell viability (HepG2 [3]; 1000 nM) [%]	cell viability (HepG2 [3]; 10000 nM) [%]	cell viability (U2OS [4]; 1 nM) [%]	cell viability (U2OS [4]; 10 nM) [%]	cell viability (U2OS [4]; 100 nM) [%]	cell viability (U2OS [4]; 1000 nM) [%]	cell viability (U2OS [4]; 10000 nM) [%]	cell viability (Vero E6 [5]; 1 nM) [%]	cell viability (Vero E6 [5]; 10 nM) [%]	cell viability (Vero E6 [5]; 100 nM) [%]	cell viability (Vero E6 [5]; 1000 nM) [%]	cell viability (Vero E6 [5]; 10000 nM) [%]	relative viability EC50 (Caco-2 [6]) [µM]	relative viability EC50 (Calu-3 [7]) [µM]	relative viability EC50 (HepG2 [8]) [µM]	relative viability EC50 (U2OS [9]) [µM]	relative viability EC50 (Vero E6 [10]) [µM]	drug sensitivity score (Caco-2 [11])	drug sensitivity score (Calu-3 [12])	drug sensitivity score (HepG2 [13])	drug sensitivity score (U2OS [14])	drug sensitivity score (Vero E6 [15])
CN1[C@@H]2CC[C@H]1C[C@@H](OC(=O)N1Cc3ccccc3NC1=O)C2 [DAU-5884]	93.3	91.7	89.5	97.3	92.7	96.5	105	98.1	99.3	94.4	105	93.3	94.5	110	97.3	97.2	102	94.4	100	100	101	94.6	97.9	96.8	91.3	> 10	> 10	> 10	> 10	> 10	0	0	0	0	0
CCCC[C@@]1(C2CCCC2)Cc2cc(OCCCC(=O)O)c(Cl)c(Cl)c2C1=O [DCPIB]	105	108	103	88.3	85.8	87	96.4	106	89.1	118	109	98.1	99.1	92.5	94.8	95.7	90.4	97.4	93.9	94.5	109	109	99.7	100	101	> 10	> 10	> 10	> 10	> 10	0.9	0	0	0	0
CCN(c1nc(N)c(C(=O)NC(=N)N)nc1Cl)C(C)C [EIPA]	90.8	104	101	100	105	92.4	104	91.9	102	84.9	100	97.4	101	85.6	86.5	99.7	100	99.8	102	93.8	103	94.2	96.2	94.2	104	> 10	> 10	> 10	> 10	> 10	0	0.2	1.2	0	0
O=C(/C=C/c1cccnc1)NCCCCC1CCN(C(=O)c2ccccc2)CC1 [FK-866]	93.7	65	5.8	5	5.6	110	112	7	5.1	4.6	84.6	57.9	16.6	11.3	11.7	97.8	98.1	0	-0.5	0	106	106	2.7	1.2	1.9	0.0134	0.0392	0.0092	0.0303	0.0361	33.2	28.1	31.9	30.7	29.4
Cc1c(CN2CCN(C(=O)[C@H](C)O)CC2)sc2c(N3CCOCC3)nc(-c3cnc(N)nc3)nc12 [GDC-0980]	99.4	88.5	93.1	47.8	22.4	107	101	93.6	42.2	19.2	104	102	89.9	49.5	15.9	101	98	98.8	78.9	18.1	96.5	101	87.7	62.9	23.4	0.561	0.537	0.67	1.53	0.899	11	11.9	11.1	7.8	8.8
CN1C(=O)N(c2ccc(C#N)c(C(F)(F)F)c2)C(=O)[C@]1(CO)c1ccccc1 [GLPG0492-R-enantiomer]	96.1 ± 13	99.5 ± 4.8	94.4 ± 5.4	96 ± 7.1	93.7 ± 7.5	95.9 ± 3.8	109 ± 4.2	106 ± 3.9	105 ± 2.9	110 ± 15	102 ± 8.3	103 ± 2.5	102.8 ± 0.78	100 ± 5.1	102 ± 3.8	101 ± 4.5	104 ± 3.9	99 ± 1.3	101 ± 5.1	97.5 ± 4.2	96.6 ± 0.28	101 ± 2.3	96.7 ± 4.3	97 ± 0.99	94.3 ± 8.8	> 10	> 10	> 10	> 10	> 10	0	0	0	0	0
O=C(O)CCNc1cc(N2CCc3ccccc3CC2)nc(-c2cccnc2)n1 [GSK-J2]	96.6	100	98.6	94.8	87.1	100	97.1	91.5	105	97.2	99.7	97.3	96.6	98.8	103	98.5	95.4	94.8	98.3	91.2	97.3	108	98.9	98	99.1	> 10	> 10	> 10	> 10	> 10	0.2	0	0	0	0
Cc1cc(SCc2sc(-c3ccc(C(F)(F)F)c(F)c3)nc2C)ccc1OCC(=O)O [GW-0742]	99.9	101	89.1	106	87.2	95.1	94.8	92.5	90.5	98.3	102	74.6	94	90.1	99.9	102	103	97.9	104	99.7	96.3	101	96.7	98.3	99	> 10	> 10	> 10	> 10	> 10	0	0	0	0	0
CCC(=O)N1CCOc2c(cc(-c3ccc(OC)c(OC)c3)cc2OC[C@H]2CCCN(C)C2)C1 [I-CBP-112]	101	99.9	103	98.6	94.7	96.6	95	99.5	95.9	87.4	96.6	107	87.5	104	86	98.5	92	95.5	95.3	97.8	105	102	97.2	105	78.4	> 10	> 10	> 10	> 10	> 10	0	0.3	0.1	0	0.5
CN1C(=O)c2c(nn(Cc3ccc(-c4cccc(F)n4)cc3)c2Nc2ccccc2)N2C1=N[C@@H]1CCC[C@@H]12 [ITI214]	87.3	104	97.4	94.8	117	105	87	100	101	92.8	105	96.7	97.9	102	79.7	106	102	102	96.7	89.3	110	113	99.6	104	97.2	> 10	> 10	> 10	> 10	> 10	0	0	0.5	0	0
O=C(NCCO)c1cc(C(=O)NCCO)cc(C(=O)NCCO)c1 [LM-22A4]	96.8	96.1	97.3	99.2	100	104	105	97	102	91.9	104	103	101	97.5	102	94.6	97.7	96.1	99.5	93.5	105	98.3	106	98.4	105	> 10	> 10	> 10	> 10	> 10	0	0	0	0	0
FC(F)(F)c1ccc(Nc2ncnc3cc(-c4ncccc4C(F)(F)F)ccc23)cc1 [MK-2295]	100	95.8	91.9	83.9	90.6	112	96.9	101	100	81.9	92.7	94.9	91.5	116	98.4	100	95.5	101	98	97.5	99.7	98	98.3	97.8	95.2	> 10	> 10	> 10	> 10	> 10	1.2	0.5	0	0	0
Cn1cnnc1Sc1c([N+](=O)[O-])ncn1C [MNITMT]	99.9	96.3	104	94.2	95.8	100	111	94.9	85.5	92.2	100	99.9	93.1	94.1	99.7	102	97.7	99.5	97.4	98.4	105	99.3	99.2	97.5	88.7	> 10	> 10	> 10	> 10	> 10	0	1.7	0	0	0.1
O=C(NCCCCN1CCN(c2cccc(Cl)c2Cl)CC1)c1ccc2c(c1)Cc1ccccc1-2 [NGB-2904]	89.4	97.2	97	109	103	94.3	97.9	86.5	108	99.9	107	94.1	99.3	91.2	92.9	93.5	102	95.6	102	100	96.7	91.2	93.6	89.5	98.3	> 10	> 10	> 10	> 10	> 10	0	0	0	0	0
